In US5776718A, “Reversible protease inhibitors” (Arris Pharmaceutical Corporation, priority 1996, dated 1998):
Read-outs that look alike come from different tables or passages of the source. One block for each compound: values may come before it.

Columns and labels:
cathepsin S = cathepsin S (Homo sapiens, UniProt P25774); assay: Inhibition of cathepsin S, fluorogenic substrate Z-Val-Val-Arg-AMC; type: biochemical; settings: 50 mM phosphate, pH 6.5, 2.5 mM EDTA, 2.5 mM DTT; Dixon plot
Protocol: (§1) The assay at 250 was started by the addition of cat S (final concentration approx 30 μM) and the increase in fluorescence at 450 nm with excitation at 380 nm was followed over 2 min. The depression in the rate of substrate hydrolysis following addition of varying concentrations of inhibitors was noted. The assay was linear throughout the range observed. Duplicate runs were measured.
(§2) The respective Ki values were estimated by using the Dixon plot as described by Irwin Segel in Enzyme Kinetics: Behavior and analysis of rapid equilibrium and steady-state enzyme systems, 1975, Wiley-lnterscience Publication, John Wiley & Sons, New York.

cathepsin L = cathepsin L (Homo sapiens, UniProt P07711); assay: Inhibition of cathepsin L, fluorogenic substrate Z-Phe-Arg-AMC; type: biochemical
Chain of cathepsin L (P07711 114-333, species assumed): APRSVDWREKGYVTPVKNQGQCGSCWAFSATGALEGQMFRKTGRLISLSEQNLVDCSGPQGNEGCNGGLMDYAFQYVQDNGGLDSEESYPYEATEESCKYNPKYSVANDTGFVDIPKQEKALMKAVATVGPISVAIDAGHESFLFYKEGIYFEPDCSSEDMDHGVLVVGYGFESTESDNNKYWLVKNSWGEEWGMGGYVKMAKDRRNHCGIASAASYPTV
Protocol: (§3) Conditions for cathepsin L: 50 mM acetate, pH 5.5, 2.5 mM EDTA, 2.5 mM DTT. substrate: [Z-Phe-Arg-AMC]=[…] (Km=2 mM). The assay at 25^0 was started by the addition of cat L (final concentration approx 1 nM) and the increase in fluorescence at 450 nm with excitation at 380 nm was followed over 2 min. The depression in the rate of substrate hydrolysis following addition of varying concentrations of inhibitors was noted. The assay was linear throughout the range observed. Duplicate runs were measured.
as §2

cruzain = cruzain (Trypanosoma cruzi, UniProt P25779); assay: Inhibition of cruzain (conditions as for cathepsin L); type: biochemical, T. cruzi
Chain of cruzain (P25779 123-467): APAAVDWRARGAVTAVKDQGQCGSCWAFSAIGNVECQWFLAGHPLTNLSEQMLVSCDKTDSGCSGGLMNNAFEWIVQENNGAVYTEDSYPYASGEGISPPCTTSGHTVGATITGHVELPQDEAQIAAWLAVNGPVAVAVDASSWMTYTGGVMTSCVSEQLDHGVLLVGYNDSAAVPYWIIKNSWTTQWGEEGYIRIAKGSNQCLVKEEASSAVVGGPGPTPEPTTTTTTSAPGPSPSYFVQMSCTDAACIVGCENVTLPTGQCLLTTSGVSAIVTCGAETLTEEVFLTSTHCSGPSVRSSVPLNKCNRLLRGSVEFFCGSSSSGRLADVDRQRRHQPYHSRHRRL
Protocol: as §3
Conditions for cruzain were the same as for cathepsin L with the exception that the Km for the substrate was 1 mM.
as §2

cathepsin B = cathepsin B (Homo sapiens, UniProt P07858); assay: Inhibition of cathepsin B, fluorogenic substrate Z-Arg-Arg-AMC; type: biochemical
Protocol: as §1, with “B” for “S”, “10 nM)” for “30 μM)”
as §2

[1] = 50 mM acetate, pH 5.5, 2.5 mM EDTA, 2.5 mM DTT, Dixon plot, read-out: cathepsin L (Ki μM)
[2] = 50 mM acetate, pH 5.5, 2.5 mM EDTA, 2.5 mM DTT, Km 1 mM, Dixon plot, read-out: cruzain (Ki μM)
[3] = 50 mM phosphate, pH 6.0, 2.5 mM EDTA, 2.5 mM DTT, Dixon plot, read-out: cathepsin B (Ki μM)

Chain of cathepsin S (P25774 115-331, species assumed): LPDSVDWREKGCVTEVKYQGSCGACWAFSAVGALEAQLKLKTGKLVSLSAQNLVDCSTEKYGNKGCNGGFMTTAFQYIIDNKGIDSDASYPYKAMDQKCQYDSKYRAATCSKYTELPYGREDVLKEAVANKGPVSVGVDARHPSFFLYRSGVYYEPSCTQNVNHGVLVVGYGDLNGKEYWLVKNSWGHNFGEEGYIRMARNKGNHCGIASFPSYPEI

Structure (SMILES): O=C(NC(CCc1ccccc1)S(=O)(=O)c1ccccc1)[C@H](Cc1ccccc1)NC(=O)N1CCOCC1 (stereo partly drawn) [Mu--Phe--(DL)HphαSO2 Ph,]
Ki (cathepsin S): 3.7 µM

Structure (SMILES): O=C(NC(CCc1ccccc1)S(=O)(=O)C(F)(F)F)[C@H](Cc1ccccc1)NC(=O)N1CCOCC1 (stereo partly drawn) [Mu--Phe--HphαSO2 CR3, N^2-(4-morpholinylcarbonyl)-N^1-(3-phenyl-1-trifluoromethylsulfonylpropyl)-L-phenylalaninamide]
Ki (cathepsin L; [1]): 0.18 µM
Ki (cruzain; [2]): 0.23 µM
Ki (cathepsin B; [3]): 50 µM

Structure (SMILES): O=C(N[C@@H](CCc1ccccc1)CCS(=O)(=O)c1ccccc1)[C@H](Cc1ccc(O)cc1)NC(=O)N1CCOCC1 [Mu--Tyr--HphγSO2 Ph, (S)-3-(4-morpholinecarbonyltyrosyl)-amino-5-phenyl-1-phenylsulfonylpentane]
Ki (cathepsin L; [1]): 2.3 µM
Ki (cruzain): 20 µM

Structure (SMILES): CC(C)C[C@H](NC(=O)N1CCOCC1)C(=O)NC(CCc1ccccc1)S(=O)(=O)Cc1ccccc1 (stereo partly drawn) [Mu--Leu--HphαSO2 Bzl, N^2-(4-morpholinylcarbonyl)-N^1-(3-phenyl-1-benzylsulfonylpropyl)-L-leucinamide]
Ki (cathepsin L; [1]): 0.6 µM
Ki (cathepsin S): 4.2 µM
Ki (cruzain; [2]): 0.76 µM
Ki (cathepsin B; [3]): 54 µM

Structure (SMILES): Nc1ccc(CC[C@H](CCc2ccccc2)NC(=O)[C@H](Cc2ccccc2)NC(=O)N2CCOCC2)cc1 [Mu--Phe--Hph--γPh--NH2, N^2-(4-morpholinylcarbonyl)-N^1 -{3-phenyl-1S-[2-(4-aminophenyl)ethyl]propyl}-L-phenylalaninamide]
Ki (cathepsin L; [1]): 2.9 µM
Ki (cruzain; [2]): 3 µM

Structure (SMILES): O=C(N[C@@H](CCc1ccccc1)CCS(=O)(=O)CCc1ccccc1)[C@H](Cc1ccccc1)NC(=O)N1CCOCC1 [Mu--Phe--HphγSO2 EtPh, N^2-(4-morpholinylcarbonyl)-N^1 -{3-phenyl-1S-[2-(2-phenylethylsulfonyl)ethyl]propyl}-L-phenylalaninamide]
Ki (cathepsin L; [1]): 0.17 µM
Ki (cruzain; [2]): 5.9 µM

Structure (SMILES): O=C(NC(CCc1ccccc1)S(=O)(=O)Cc1ccccc1)[C@H](Cc1ccccc1)NC(=O)N1CCOCC1 (stereo partly drawn) [Mu--Phe--HphαSO2 Bzl, N^2-(4-morpholinylcarbonyl)-N^1-(3-phenyl-1-benzylsulfonylpropyl)-L-phenylalaninamide]
Ki (cathepsin L; [1]): 1.2 µM
Ki (cruzain; [2]): 0.92 µM
Ki (cathepsin B; [3]): 77 µM

Structure (SMILES): NCCC(=O)N[C@@H](Cc1ccccc1)C(=O)N[C@@H](CCc1ccccc1)CCS(=O)(=O)c1ccccc1 [β-Ala--Phe--HphγSO2 Ph, N^2-(β-alanyl)-N^1-[3-phenyl-1S-(2-phenylsulfonylethyl)propyl]-L-phenylalaninamide]
Ki (cathepsin L; [1]): 14 µM
Ki (cruzain; [2]): 14 µM

Structure (SMILES): O=C(N[C@@H](CCc1ccccc1)CCS(=O)(=O)c1ccc2ccccc2c1)[C@H](Cc1ccc2ccccc2c1)NC(=O)N1CCOCC1 [Mu--Np2-HphγSO2 Np, N^2-(4-morpholinylcarbonyl)-N^1 -{3-phenyl-1S-[2-(2-naphthylsulfonyl)ethyl]propyl}-β-(2-naphthyl)-L-alaninamide]
Ki (cathepsin L; [1]): 0.26 µM
Ki (cruzain; [2]): 0.1 µM
Ki (cathepsin B; [3]): 20 µM

Structure (SMILES): CC(C)C[C@H](NC(=O)N1CCOCC1)C(=O)NC(CCc1ccccc1)S(=O)(=O)c1ccccc1 (stereo partly drawn) [Mu--Leu--HphαSO2 Ph, N^2-(4-morpholinylcarbonyl)-N^1-(3-phenyl-1-phenylsulfonylpropyl)-L-leucinamide]
Ki (cathepsin L; [1]): 1.3 µM
Ki (cathepsin S): 1.6 µM
Ki (cruzain; [2]): 0.27 µM
Ki (cathepsin B; [3]): 16 µM

Structure (SMILES): COc1ccc(CC[C@H](CCc2ccccc2)NC(=O)[C@H](Cc2ccccc2)NC(=O)N2CCOCC2)cc1 [Mu--Phe--Hph-γPh--OMe, N^2-(4-morpholinylcarbonyl)-N^1 -{3-phenyl-1S-[2-(4-methoxyphenyl)ethyl]propyl}-L-phenylalaninamide]
Ki (cathepsin L; [1]): 0.94 µM
Ki (cruzain; [2]): 0.89 µM
Ki (cathepsin B; [3]): 4.8 µM

Ki (cathepsin S): 2.6 µM
Structure (SMILES): O=C(N[C@@H](CCc1ccccc1)S(=O)(=O)c1ccccc1)[C@H](Cc1ccccc1)NC(=O)N1CCOCC1 [Mu--Phe--HphαSO2 Ph]

Structure (SMILES): O=C(NC(CCc1ccccc1)S(=O)(=O)c1ccccc1)[C@H](Cc1ccccc1)NC(=O)N1CCOCC1 (stereo partly drawn) [Mu--Phe--(DL)HphαSO2 Ph, N^2-(4-morpholinylcarbonyl)-N^1-(3-phenyl-1-phenylsulfonylpropyl)-L-phenylalaninamide]
Ki (cathepsin L; [1]): 13 µM
Ki (cathepsin S): 5 µM
Ki (cruzain; [2]): 15 µM
Ki (cathepsin B; [3]): 3000 µM

Structure (SMILES): O=C(CC[C@H](CCc1ccccc1)NC(=O)[C@H](Cc1ccccc1)NC(=O)N1CCOCC1)Nc1ccccc1 [Mu--Phe--HphγCONHPh, N^2-(4-morpholinylcarbonyl)-N^1-[3-phenyl-1S-(2-phenylcarbamoylethyl)propyl]-L-phenylalaninamide]
Ki (cathepsin L; [1]): 2 µM
Ki (cruzain; [2]): 0.13 µM
Ki (cathepsin B; [3]): 2.6 µM

Structure (SMILES): O=C(CCNC(=O)OCc1ccccc1)N[C@@H](Cc1ccccc1)C(=O)N[C@@H](CCc1ccccc1)CCS(=O)(=O)c1ccccc1 [Z--β-Ala--Phe--HphγSO2 Ph, M-(N-benzyloxycarbonyl-β-alanyl)-N^1-[3-phenyl-1S-(2-phenylsulfonylethyl)propyl]-L-phenylalaninamide]
Ki (cathepsin L; [1]): 0.79 µM
Ki (cruzain; [2]): 0.54 µM
Ki (cathepsin B; [3]): 52 µM

Structure (SMILES): COC(=O)CCC(=O)N[C@@H](Cc1ccccc1)C(=O)N[C@@H](CCc1ccccc1)CCS(=O)(=O)c1ccccc1 [MeOSuc--Phe--HphγSO2 Ph, methyl 3-{2-phenyl-1S-[3-phenyl-1S-(2-phenylsulfonylethyl)propylcarbamoyl]ethylcarbamoyl}propionate]
Ki (cathepsin L; [1]): 3.2 µM
Ki (cruzain; [2]): 4.7 µM
Ki (cathepsin B; [3]): 81 µM

Structure (SMILES): O=C(CC[C@H](CCc1ccccc1)NC(=O)[C@H](Cc1ccccc1)NC(=O)N1CCOCC1)NCc1ccccc1 [Mu--Phe--HphγCONHBzl, N^2-(4-morpholinylcarbonyl)-N^1-[3-phenyl-1S-(2-benzylcarbamoylethyl)propyl]-L-phenylalaninamide]
Ki (cathepsin L; [1]): 19 µM
Ki (cruzain; [2]): 7.7 µM

Structure (SMILES): CCOC(=O)CC[C@H](CCc1ccccc1)NC(=O)[C@H](Cc1ccccc1)NC(=O)N1CCOCC1 [Mu--Phe--HphγCO2 Et, ethyl 4S-[N-(4-morpholinylcarbonyl)-L-phenylalanylamino]-6-phenylhexanoate]
Ki (cathepsin L; [1]): 0.48 µM
Ki (cruzain; [2]): 0.91 µM
Ki (cathepsin B; [3]): 1.6 µM

Structure (SMILES): O=C(O)CCC(=O)N[C@@H](Cc1ccc2ccccc2c1)C(=O)N[C@@H](CCc1ccccc1)CCS(=O)(=O)c1ccc2ccccc2c1 [Suc--Np2--HphγSO2 2Np]
Ki (cathepsin L; [1]): 0.11 µM
Ki (cruzain; [2]): 0.23 µM
Ki (cathepsin B; [3]): > 1000 µM

Structure (SMILES): O=C(N[C@@H](CCc1ccccc1)CS(=O)(=O)c1ccccc1)[C@H](Cc1ccccc1)NC(=O)N1CCOCC1 [Mu--Phe--HphβSO2 Ph, N^1-(4-morpholinylcarbonyl)-N^1-(3-phenyl-1S-phenylsulfonylmethylpropyl)-L-phenylalaniamide]
Ki (cathepsin L; [1]): 29 µM
Ki (cruzain; [2]): 5.7 µM
Ki (cathepsin B; [3]): 1100 µM

Structure (SMILES): O=C(N[C@@H](CCc1ccccc1)CCS(=O)(=O)c1ccccc1)[C@H](Cc1ccccc1)NC(=O)N1CCOCC1 [Mu--Phe--HphγSO2 Ph, N^2-(4-morpholinylcarbonyl)-N^1-[3-phenyl-1S-(2-phenylsulfonylethyl)propyl]-L-phenylalaninamide]
Ki (cathepsin L; [1]): 10 µM
Ki (cruzain; [2]): 4.3 µM
Ki (cathepsin B; [3]): 48 µM

Structure (SMILES): O=C(O)CCC(=O)N[C@@H](Cc1ccc2ccccc2c1)C(=O)N[C@@H](CCc1ccccc1)CCS(=O)(=O)c1ccccc1 [Suc--Np2--HphγSO2 Ph, 3-{2-naphthyl-1S-[3-phenyl-1S-(2-phenylsulfonylethyl)propylcarbamoyl]ethylcarbamoyl}propionic acid]
Ki (cathepsin L; [1]): 2.3 µM
Ki (cruzain; [2]): 0.78 µM
Ki (cathepsin B; [3]): > 1000 µM

Structure (SMILES): O=C(NC(CCc1ccccc1)S(=O)(=O)CF)[C@H](Cc1ccccc1)NC(=O)N1CCOCC1 (stereo partly drawn) [Mu--Phe--HphαSO2 CH2 F, N^2-(4-morpholinylcarbonyl)-N^1-(3-phenyl-1-fluoromethylsulfonylpropyl)-L-phenylalaninamide]
Ki (cathepsin L; [1]): 1.5 µM
Ki (cathepsin S): 2.8 µM
Ki (cruzain; [2]): 2 µM
Ki (cathepsin B; [3]): 170 µM

Structure (SMILES): O=C(O)CCC(=O)N[C@@H](Cc1ccccc1)C(=O)N[C@@H](CCc1ccccc1)CCS(=O)(=O)c1ccccc1 [Suc--Phe--HphγSO2 Ph, 3-{2-phenyl-1S-[3-phenyl-1S-(2-phenylsulfonylethyl)propylcarbamoyl]ethylcarbamoyl}propionic acid]
Ki (cathepsin L; [1]): 1 µM
Ki (cruzain; [2]): 1.5 µM
Ki (cathepsin B; [3]): > 1000 µM

Structure (SMILES): CCOP(=O)(CC[C@H](CCc1ccccc1)NC(=O)[C@H](Cc1ccccc1)NC(=O)N1CCOCC1)OCC [Mu--Phe--HphγPO(O2 Et)2]
Ki (cathepsin L): 3 µM
Ki (cruzain): 15 µM
Ki (cathepsin B): 17 µM

Structure (SMILES): O=C(Cc1ccccc1)N[C@@H](Cc1ccccc1)C(=O)N[C@@H](CCc1ccccc1)CCS(=O)(=O)c1ccccc1 [Phac--Phe--HphγSO2 Ph, N^2-phenylacetyl-N^1-[3-phenyl-1S-(2-phenylsulfonylethyl)propyl]-L-phenylalaninamide]
Ki (cathepsin L; [1]): 0.41 µM
Ki (cruzain; [2]): 1.8 µM
Ki (cathepsin B; [3]): > 10 µM
